Read-outs that look alike come from different tables or passages of the source.
Key:
other PDE isoforms = conditions: reported in Brandon et al., Annual Reports in Medicinal Chemistry 42: 4-5, 2007; cited from earlier work
[1] = reported in Brandon et al., Annual Reports in Medicinal Chemistry 42: 4-5, 2007; cited from earlier work
Rhesus PDE2A3 = Rhesus PDE2A3 (Macaca mulatta, UniProt B3VTJ2); experiment: PDE2 fluorescence polarization (IMAP FP) inhibition assay, rhesus enzyme; type: biochemical, rhesus macaque
Chain of Rhesus PDE2A3 (B3VTJ2 1-941): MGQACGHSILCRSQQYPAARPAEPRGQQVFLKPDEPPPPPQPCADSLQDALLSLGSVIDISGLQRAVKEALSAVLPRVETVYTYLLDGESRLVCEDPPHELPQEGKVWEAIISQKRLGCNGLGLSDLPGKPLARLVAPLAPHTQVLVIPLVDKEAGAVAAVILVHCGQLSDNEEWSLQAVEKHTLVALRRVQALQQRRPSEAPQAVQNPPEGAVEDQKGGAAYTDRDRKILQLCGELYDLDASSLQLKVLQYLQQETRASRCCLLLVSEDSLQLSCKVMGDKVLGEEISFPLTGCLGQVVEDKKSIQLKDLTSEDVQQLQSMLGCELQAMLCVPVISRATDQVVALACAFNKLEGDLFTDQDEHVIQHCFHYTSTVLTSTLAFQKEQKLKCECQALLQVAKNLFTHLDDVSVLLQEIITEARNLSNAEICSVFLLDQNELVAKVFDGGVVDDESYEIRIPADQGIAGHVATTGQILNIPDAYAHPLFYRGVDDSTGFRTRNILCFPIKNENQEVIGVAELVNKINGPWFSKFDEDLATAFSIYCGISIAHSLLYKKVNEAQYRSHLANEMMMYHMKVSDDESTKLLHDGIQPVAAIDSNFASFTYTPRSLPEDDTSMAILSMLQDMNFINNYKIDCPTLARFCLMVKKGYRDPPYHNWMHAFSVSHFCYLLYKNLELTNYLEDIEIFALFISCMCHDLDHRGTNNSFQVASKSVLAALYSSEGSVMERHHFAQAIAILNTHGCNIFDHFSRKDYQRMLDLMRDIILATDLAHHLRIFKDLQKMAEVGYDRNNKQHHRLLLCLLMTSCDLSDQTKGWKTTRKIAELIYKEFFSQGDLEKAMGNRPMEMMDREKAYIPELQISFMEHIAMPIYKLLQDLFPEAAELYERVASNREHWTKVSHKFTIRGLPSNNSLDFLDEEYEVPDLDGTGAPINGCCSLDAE
Procedure, shortened: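 Rhesus PDE2A3 came from lysate of transiently transfected AD293 cells, diluted to give 20% substrate conversion. Substrate was 50 nM FAM-cAMP with 1 uM cGMP activator in Tris pH 7.2/MgCl2 buffer, run 60 min at room temperature over 10-point 3-fold dilutions in 1% DMSO. Read-out was IMAP fluorescence polarization (mP) after ≥1 h binding.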

human PDE2A1 = human PDE2A1 (Homo sapiens (Human), UniProt O00408); experiment: IMAP FP PDE selectivity panel, human PDE2A1; type: biochemical
Chain of human PDE2A1 (O00408 other isoform, or with tags, fused parts or gaps): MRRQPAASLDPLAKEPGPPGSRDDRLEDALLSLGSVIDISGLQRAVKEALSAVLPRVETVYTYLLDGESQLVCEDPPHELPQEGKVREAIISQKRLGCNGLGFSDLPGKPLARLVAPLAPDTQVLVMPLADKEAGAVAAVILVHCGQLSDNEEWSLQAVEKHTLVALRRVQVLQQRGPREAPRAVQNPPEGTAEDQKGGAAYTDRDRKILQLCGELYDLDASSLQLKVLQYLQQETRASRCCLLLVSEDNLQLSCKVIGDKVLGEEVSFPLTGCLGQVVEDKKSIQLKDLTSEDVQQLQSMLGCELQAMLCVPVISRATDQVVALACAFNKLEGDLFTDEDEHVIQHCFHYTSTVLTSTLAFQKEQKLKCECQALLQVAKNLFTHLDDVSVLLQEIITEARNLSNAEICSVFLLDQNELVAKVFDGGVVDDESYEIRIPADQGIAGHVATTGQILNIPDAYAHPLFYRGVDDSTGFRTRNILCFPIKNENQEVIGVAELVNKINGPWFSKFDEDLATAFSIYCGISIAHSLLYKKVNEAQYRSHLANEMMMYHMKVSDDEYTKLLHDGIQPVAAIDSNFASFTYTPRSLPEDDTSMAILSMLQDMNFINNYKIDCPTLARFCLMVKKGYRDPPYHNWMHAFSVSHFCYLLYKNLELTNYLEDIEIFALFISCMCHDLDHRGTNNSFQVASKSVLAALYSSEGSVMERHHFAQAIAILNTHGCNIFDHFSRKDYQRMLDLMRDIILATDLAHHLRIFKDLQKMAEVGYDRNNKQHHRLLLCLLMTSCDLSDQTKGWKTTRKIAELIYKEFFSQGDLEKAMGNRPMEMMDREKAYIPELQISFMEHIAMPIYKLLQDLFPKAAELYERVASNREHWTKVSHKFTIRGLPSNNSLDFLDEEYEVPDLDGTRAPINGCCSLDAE
Procedure, shortened: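 GST-tagged human PDE2A1 expressed in insect cells, run at room temperature for 60 min with 50 nM FAM-cAMP containing 1000 nM cGMP, pH 7.2 Tris/MgCl2 buffer. IMAP fluorescence polarization read after binding step.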

[2] = Rhesus PDE2, Lab A, read-out: Rhesus PDE2 Ki (nM) - Lab A
[3] = Rhesus PDE2, Lab B, read-out: Rhesus PDE2 Ki (nM) - Lab B
[4] = Human PDE2, Lab A, read-out: Human PDE2 Ki (nM) - Lab A
[5] = Human PDE2, Lab B, read-out: Human PDE2 Ki (nM) - Lab B

Structure (SMILES)	potency at other PDE isoforms (other PDE isoforms)	brain penetration [1]	Ki (Rhesus PDE2A3; [2]) [nM]	Ki (Rhesus PDE2A3; [3]) [nM]	Ki (human PDE2A1; [4]) [nM]	Ki (human PDE2A1; [5]) [nM]
COc1ccc(Cc2nn3c([C@@H](CCCc4ccccc4)[C@@H](C)O)nc(C)c3c(=O)[nH]2)cc1OC [BAY 60-7550]	significant potency at other PDE isoforms	limited brain penetration				
CC(C)[C@@H](NC(=O)c1cc(=O)[nH]c(-c2ccccc2)n1)c1ccc(C(F)(F)F)cc1 [Example 167, N-{(1R)-2-methyl-1-[4-(trifluoromethyl)phenyl]propyl}-6-oxo-2-phenyl-1,6-dihydropyrimidine-4-carboxamide]			2.3	3.5	1.9	2.3
C[C@@H](NC(=O)c1cc(=O)[nH]c(C2CC2)n1)c1ccc(SC(F)(F)F)c(F)c1 [Example 243, 2-cyclopropyl-N-[(1R)-1-{3-fluoro-4-[(trifluoromethyl)sulfanyl]phenyl}ethyl]-6-oxo-1,6-dihydropyrimidine-4-carboxamide]			3.6	6.7		5.8
C[C@@H](NC(=O)c1cc(=O)[nH]c(-c2ccccc2)n1)c1ccc(Cl)cc1 [Example 418, N-[(1R)-1-(4-chlorophenyl)ethyl]-6-oxo-2-phenyl-1,6-dihydropyrimidine-4-carboxamide]				48		41
C[C@@H](NC(=O)c1cc(=O)[nH]c(C2CC2)n1)c1ccc(OC(F)(F)F)cc1 [Example 10, 2-cyclopropyl-6-oxo-N-{(1R)-1-[4-(trifluoromethoxy)phenyl]ethyl}-1,6-dihydropyrimidine-4-carboxamide]			9.9		6	
CSCc1nc(C(=O)N[C@H](C)c2ccc(C(F)(F)F)cc2)cc(=O)[nH]1 [Example 36, 2-[(methylsulfanyl)methyl]-6-oxo-N-{(1R)-1-[4-(trifluoromethyl)phenyl]ethyl}-1,6-dihydropyrimidine-4-carboxamide]			163		116	
COc1ccc(Cc2nc(C(=O)N[C@@H](c3ccc(SC(F)(F)F)c(F)c3)C(C)C)cc(=O)[nH]2)cc1F [Example 512, 2-(3-fluoro-4-methoxybenzyl)-N-[(1R)-1-{3-fluoro-4-[(trifluoromethyl)sulfanyl]phenyl}-2-methylpropyl]-6-oxo-1,6-dihydropyrimidine-4-carboxamide]				1.5		1.6
O=C(N[C@H](CC(F)(F)F)c1ccc(C(F)(F)F)cc1)c1cc(=O)[nH]c(-c2ccccc2)n1 [Example 353, 6-oxo-2-phenyl-N-{(1R)-3,3,3-trifluoro-1-[4-(trifluoromethyl)phenyl]propyl}-1,6-dihydropyrimidine-4-carboxamide]			~9.2	23		21
